Source: ChEMBL document CHEMBL3045107, “A facile green synthesis and in vitro antimicrobial activity 4H-pyrimido[2,1-b][1,3]benzothiazole derivatives using aluminum trichloride under solvent free conditions” (Med Chem Res, 2012)
Values after ≈ are worked out from the molar mass of the structure shown. Active and inactive are the calls of the source. The rule behind the calls is not given here.

Assays:
Aspergillus fumigatus [1] = experiment: Antifungal activity against Aspergillus fumigatus at 0.78 to 50 ug/ml after 72 hr by broth microdilution method; assay type: functional
[2] = Cytotoxicity against Homo sapiens (human) L123 cells after 48 hr by MTT assay; assay type: cell-based; set-up: unit not given here
Staphylococcus aureus [3] = experiment: Antibacterial activity against Staphylococcus aureus ATCC 11632 after 24 hr by broth microdilution method; assay type: functional; details: ATCC 11632, 24 h
Salmonella typhi [4] = experiment: Antibacterial activity against Salmonella enterica subsp. enterica serovar Typhi ATCC 23564 after 24 hr by broth microdilution method; assay type: functional; details: ATCC 23564, 24 h
Aspergillus niger [5] = experiment: Antifungal activity against Aspergillus niger after 72 hr by broth microdilution method; assay type: functional
Bacillus cereus = experiment: Antibacterial activity against Bacillus cereus MTCC 7350 after 24 hr by broth microdilution method; assay type: functional; details: MTCC 7350, 24 h
Pseudomonas aeruginosa [6] = experiment: Antibacterial activity against Pseudomonas aeruginosa ATCC 15499 after 24 hr by broth microdilution method; assay type: functional; details: ATCC 15499, 24 h
Aspergillus niger [7] = experiment: Antifungal activity against Aspergillus niger at 0.78 to 50 ug/ml after 72 hr by broth microdilution method; assay type: functional
Escherichia coli [8] = experiment: Antibacterial activity against Escherichia coli ATCC 35218 after 24 hr by broth microdilution method; assay type: functional; details: ATCC 35218, 24 h
Providencia rettgeri [9] = experiment: Antibacterial activity against Providencia rettgeri isolated from infected fish after 24 hr by broth microdilution method; assay type: functional
Aspergillus fumigatus [10] = experiment: Antifungal activity against Aspergillus fumigatus after 72 hr by broth microdilution method; assay type: functional
Aspergillus flavus [11] = experiment: Antifungal activity against Aspergillus flavus at 0.78 to 50 ug/ml after 72 hr by broth microdilution method; assay type: functional
Providencia rettgeri [12] = experiment: Antibacterial activity against Providencia rettgeri isolated from infected fish at 0.78 to 50 ug/ml after 24 hr by broth microdilution method; assay type: functional, organism-based
Escherichia coli [13] = experiment: Antibacterial activity against Escherichia coli ATCC 35218 at 0.78 to 50 ug/ml after 24 hr by broth microdilution method; assay type: functional, organism-based
Staphylococcus aureus [14] = experiment: Antibacterial activity against Staphylococcus aureus ATCC 11632 at 0.78 to 50 ug/ml after 24 hr by broth microdilution method; assay type: functional, organism-based
Aspergillus flavus [15] = experiment: Antifungal activity against Aspergillus flavus after 72 hr by broth microdilution method; assay type: functional
Pseudomonas aeruginosa [16] = experiment: Antibacterial activity against Pseudomonas aeruginosa ATCC 15499 at 0.78 to 50 ug/ml after 24 hr by broth microdilution method; assay type: functional, organism-based
Salmonella typhi [17] = experiment: Antibacterial activity against Salmonella enterica subsp. enterica serovar Typhi ATCC 23564 at 0.78 to 50 ug/ml after 24 hr by broth microdilution method; assay type: functional, organism-based

Compound | inhibition zone (IZ) (Aspergillus fumigatus [1]) [mm] | IC50 [2] | MIC (Staphylococcus aureus [3]) [µg/mL] | MIC (Salmonella typhi [4]) [µg/mL] | MIC (Aspergillus niger [5]) [µg/mL] | MIC (Bacillus cereus) [µg/mL] | MIC (Pseudomonas aeruginosa [6]) [µg/mL] | inhibition zone (IZ) (Aspergillus niger [7]) [mm] | MIC (Escherichia coli [8]) [µg/mL] | MIC (Providencia rettgeri [9]) [µg/mL] | MIC (Aspergillus fumigatus [10]) [µg/mL] | inhibition zone (IZ) (Aspergillus flavus [11]) [mm] | Activity (Aspergillus flavus [11]) | Activity (Staphylococcus aureus [14]) | Activity (Aspergillus niger [7]) | Activity (Aspergillus fumigatus [1]) | MIC (Aspergillus flavus [15]) [µg/mL] | other results
CCOC(=O)C1=C(C)N=C2Sc3ccccc3N2C1c1ccc(OC)cc1 (configuration not stated) | 20 | > 100 | 6.25 (≈ 16.4 µM) | 12.5 (≈ 32.9 µM) | 6.25 (≈ 16.4 µM) | 6.25 (≈ 16.4 µM) | 6.25 (≈ 16.4 µM) | 16 | 6.25 (≈ 16.4 µM) | 6.25 (≈ 16.4 µM) | 6.25 (≈ 16.4 µM) | 18 | – | – | – | – | – | –
CCOC(=O)C1=C(C)N=C2Sc3ccccc3N2C1c1ccc(O)cc1 (configuration not stated) | 12 | 50 | 12.5 (≈ 34.1 µM) | 25 (≈ 68.2 µM) | 6.25 (≈ 17.1 µM) | 6.25 (≈ 17.1 µM) | 12.5 (≈ 34.1 µM) | 15 | 6.25 (≈ 17.1 µM) | 12.5 (≈ 34.1 µM) | – | – | inactive | – | – | – | – | –
CCOC(=O)C1=C(C)N=C2Sc3ccccc3N2C1c1ccccc1 (configuration not stated) | 10 | > 100 | – | 25 (≈ 71.3 µM) | – | 12.5 (≈ 35.7 µM) | 25 (≈ 71.3 µM) | – | – | – | 6.25 (≈ 17.8 µM) | – | inactive | inactive | inactive | – | – | Activity (Providencia rettgeri [12]): inactive; Activity (Escherichia coli [13]): inactive
CCOC(=O)C1=C(C)N=C2Sc3ccccc3N2C1c1c(Cl)cccc1Cl (configuration not stated) | – | > 100 | 12.5 (≈ 29.8 µM) | 25 (≈ 59.6 µM) | – | 6.25 (≈ 14.9 µM) | 12.5 (≈ 29.8 µM) | – | 6.25 (≈ 14.9 µM) | 12.5 (≈ 29.8 µM) | 6.25 (≈ 14.9 µM) | – | inactive | – | inactive | inactive | 12.5 (≈ 29.8 µM) | –
CCOC(=O)C1=C(C)N=C2Sc3ccccc3N2C1c1ccc(N(C)C)cc1 (configuration not stated) | – | > 100 | – | 12.5 (≈ 31.8 µM) | – | 6.25 (≈ 15.9 µM) | 12.5 (≈ 31.8 µM) | – | 12.5 (≈ 31.8 µM) | 12.5 (≈ 31.8 µM) | – | – | inactive | inactive | inactive | inactive | – | –
OC(Cn1cncn1)(Cn1cncn1)c1ccc(F)cc1F [FLUCONAZOLE] | 22 | – | – | – | 1.62 (≈ 5.29 µM) | – | – | 18 | – | – | 1.62 (≈ 5.29 µM) | 25 | – | – | – | – | 1.62 (≈ 5.29 µM) | –
O=C(O)c1cn(C2CC2)c2cc(N3CCNCC3)c(F)cc2c1=O [CIPROFLOXACIN] | – | – | 3.25 (≈ 9.81 µM) | 3.25 (≈ 9.81 µM) | – | 1.62 (≈ 4.89 µM) | 1.62 (≈ 4.89 µM) | – | 1.62 (≈ 4.89 µM) | 1.62 (≈ 4.89 µM) | – | – | – | – | – | – | – | –
CCOC(=O)C1=C(C)N=C2Sc3ccccc3N2C1c1ccc(O)c(OC)c1 (configuration not stated) | – | 50 | 25 (≈ 63.1 µM) | – | 6.25 (≈ 15.8 µM) | 12.5 (≈ 31.5 µM) | – | 10 | 25 (≈ 63.1 µM) | 25 (≈ 63.1 µM) | – | – | inactive | – | – | inactive | – | Activity (Pseudomonas aeruginosa [16]): inactive; Activity (Salmonella typhi [17]): inactive
CCOC(=O)C1=C(C)N=C2Sc3ccccc3N2C1c1ccc([N+](=O)[O-])cc1 (configuration not stated) | 15 | > 100 | 25 (≈ 63.2 µM) | 6.25 (≈ 15.8 µM) | 12.5 (≈ 31.6 µM) | 6.25 (≈ 15.8 µM) | 12.5 (≈ 31.6 µM) | 17 | 12.5 (≈ 31.6 µM) | 25 (≈ 63.2 µM) | 6.25 (≈ 15.8 µM) | – | inactive | – | – | – | – | –
CCOC(=O)C1=C(C)N=C2Sc3ccccc3N2C1c1ccccc1O (configuration not stated) | – | > 100 | – | – | – | 6.25 (≈ 17.1 µM) | 25 (≈ 68.2 µM) | – | 12.5 (≈ 34.1 µM) | 12.5 (≈ 34.1 µM) | – | 11 | – | inactive | inactive | inactive | 12.5 (≈ 34.1 µM) | Activity (Salmonella typhi [17]): inactive
